Where a name gives a salt, the structure may show the parent alone.
Test: Test Example 1: concentration of compound A in plasma and brain after oral administration to rats
Format: in vivo, rat
Conditions: for Brain MRT (mean residence time) of the compound A / Brain T1/2 (elimination half-life) of the compound A / Plasma MRT (mean residence time) of the compound A / Plasma T1/2 (elimination half-life) of the compound A: rat (Crl: CD male), oral, without fasting, 56 mg/kg compound A maleate or 58 mg/kg compound A oxide maleate; for Brain MRT (mean residence time) of the compound A / Brain T1/2 (elimination half-life) of the compound A: compound A measured in brain; for Plasma MRT (mean residence time) of the compound A / Plasma T1/2 (elimination half-life) of the compound A: compound A measured in plasma
Method: In the compound A administration solution, the concentration of the compound A maleate was adjusted to be 14 mg/mL by dissolving the compound A maleate in a physiological saline solution. In the compound A oxide administration solution, the concentration of the compound A oxide maleate was adjusted to be 14.54 mg/mL by dissolving the compound A oxide maleate in a physiological saline solution.
Each of the administration solutions was orally administered to rats (Crl: CD strain male rat: 8 weeks old) without fasting. The dosage was set at 56 mg/kg for the compound A administration group and 58 mg/kg for the compound A oxide administration group.
At 0.25, 0.5, 1, 2, 5, 8, 10 and 12 hours after the administration, for each group, heparinized whole blood was collected from the aorta abdominalis under mild ether anesthesia, and then the rats were killed by exsanguination and the brains were excised.
The collected blood was centrifuged at 4° C. for 10 minutes at approximately 1600×g to obtain the plasma. To 100 μL of the resulting plasma was added 900 μL of distilled water containing 25 ng/mL of the internal standard substance and 25 μL of phosphoric acid, and the resulting mixture was stirred, followed by adding to a solid-phase extraction plate (Oasis HLB 10 mg or 30 mg, manufactured by Waters) which was conditioned with methanol and distilled water. The solid-phase extraction plate was washed with 2 mL of distilled water, followed by eluting with 2 mL of acetonitrile. The eluate was concentrated and dried-up and then dissolved in a mobile phase A solution, followed by centrifuging at 4° C. for 10 minutes at approximately 1600×g. The resulting supernatant was subjected to a liquid chromatography-tandem mass spectrometer to determine the concentration of the compound A in the plasma of each group.
The excised brains were homogenized with 25% ammonia water/methanol (1:49) (10-fold volume of the wet brain weight) and then 2 mL of the homogenate was centrifuged at 4° C. for 10 minutes at approximately 1600×g to separate the supernatant. To the sediment was added 2 mL of 25% ammonia water/methanol (1:49), followed by centrifuging at 4° C. for 10 minutes at approximately 1600×g. These supernatants were combined and concentrated and dried-up and then dissolved in 1 mL of distilled water containing 25 ng/mL of the internal standard substance. To the resulting solution was added 25 μL of phosphoric acid and the resulting mixture was stirred, followed by subjecting to a solid-phase extraction operation similar to that for the above plasma. The resulting eluate was concentrated and dried-up and then dissolved in the mobile phase A solution or 50% methanol, followed by centrifuging at 4° C. for 10 minutes at approximately 1600×g. The resulting supernatant was subjected to the liquid chromatography-tandem mass spectrometer to determine the concentration of the compound A in the brain of each group.
The following instruments and conditions were used for the measurement of the concentration of the compound A.

[1] = rat, oral administration of the compound A oxide, result in words

SMILES | Brain MRT (mean residence time) of the compound A [h] | Brain T1/2 (elimination half-life) of the compound A [h] | Plasma MRT (mean residence time) of the compound A [h] | Plasma T1/2 (elimination half-life) of the compound A [h] | concentration of the compound A in the plasma and brain [1] | residence time of the compound A in the body [1]
O=C(O)/C=C\C(=O)O.OC1CN(CCCOCCc2ccc3sccc3c2)C1 [Compound A Maleate, 1-(3-(2-(1-benzothiophen-5-yl)ethoxy)propyl)azetidin-3-ol maleate, reference compound] | 3.01 | 1.53 | 2.86 | 1.56 | – | –
[O-][s+]1ccc2cc(CCOCCCN3CC(O)C3)ccc21 (stereo not shown) [Compound A oxide Maleate, 1-(3-(2-(1-benzothiophen-5-yl)ethoxy)propyl)azetidin-3-ol S-oxide maleate] | 5.72 | 2.28 | 5.41 | 2.69 | – | –
[O-][s+]1ccc2cc(CCOCCCN3CC(O)C3)ccc21 (stereo not shown) [compound A oxide, 1-(3-(2-(1-benzothiophen-5-yl)ethoxy)propyl)azetidin-3-ol S-oxide] | – | – | – | – | maintained at a high concentration | prolonged

From US8026232B2, “Benzothiophene oxide derivative and salt thereof” (Toyama Chemical Co., Ltd., priority 2008, dated 2011)
